Patent publication US9206124B2, “Treatment of drug-resistant cancer with 2-aryl-2-(3-indolyl) acetohydroxamates” (New Mexico Technical Research Foundation, priority 2013, dated 2015)
Entries after “also recorded” stand apart in the source; their conditions may differ.

Assays:
[1] = system: HeLa cervical and MCF-7 breast adenocarcinomas; assay: In vitro growth inhibition (MTT); type: cell-based, human; conditions: HeLa and MCF-7
Excerpt: (§1) This finding led to an exploration of the SAR analyses by synthesizing the first generation compounds 3 containing diverse substituents at different positions in the 2-aryl-2-(3-indolyl)acetohydroxamate skeleton and testing this series for in vitro growth inhibition using the MTT colorimetric assay against two cell lines, human HeLa cervical and MCF-7 breast adenocarcinomas (Table 1). It emerged from these experiments that the substitution on the benzene ring of the indole moiety (R^2≠H) was not tolerated (e.g., 3abfa and 3acfa), whereas the nitrogen could be derivatized (R^1≠H) with only a small activity drop (e.g., 3bafa vs 3aafa).
(§2) Antiproliferative properties of the synthesized compounds were evaluated by the MTT assay. All compounds were dissolved in DMSO at a concentration of either 100 mM or 50 mM prior to cell treatment. The cells were trypsinized and seeded at 4×10^3 cells per well into 96-well plates. The cells were grown for 24 h, treated with compounds at concentrations ranging from 0.001 to 100 μM and incubated for 48 h in 200 μL media. 20 μL of MTT reagent in serum free medium (5 mg/mL) was added to each well and incubated further for 2 h. Media was removed and the resulting formazan crystals were re-solubilized in 200 μL of DMSO. A490 was measured using a Molecular Devices Thermomax plate reader. The experiments were performed in quadruplicate and repeated at least twice for each compound per cell line. Cells treated with 0.1% DMSO were used as a negative control; 1 μM phenyl arsine oxide (PAO) was used as a positive control.

U87 glioblastoma cells = assay: MTT antiproliferative assay, U87; type: cell-based, human; conditions: for GI50: Homo sapiens, 48 h treatment, MTT, ± SD, read-out: GI50 in vitro, U87
Description: (§3) As part of the ongoing efforts aimed at identification of compounds active against cancer cells displaying resistance to proapoptotic agents, the selected 2-aryl-2-(3-indolyl)-acetohydroxamates were evaluated for in vitro growth inhibition against a panel of additional cancer cell lines including those resistant to various proapoptotic stimuli, such as human T98G and U87 glioblastoma and human A549 non-small-cell-lung cancer (NSCLC), as well as an apoptosis-sensitive tumor model, such as human Hs683 anaplastic oligodendroglioma, used as a reference. The data reveal that for the most part these compounds retain the single-digit antiproliferatve GI50 values in this challenging cancer cell panel.
(§4) Human cancer cell lines were obtained from the American Type Culture Collection (ATCC, Manassas, Va., USA), the European Collection of Cell Culture (ECACC, Salisbury, UK) and the Deutsche Sammlung von Mikroorganismen and Zellkulturen (DSMZ, Braunschweig, Germany). Human cervical adenocarcinoma HeLa cells were cultured in DMEM supplemented with 10% fetal bovine serum (FBS). Human mammary carcinoma MCF-7 cells were cultured in RPMI supplemented with 10% FBS. The U87 cells (ATCC HTB-14) were cultured in DMEM culture medium, while the A549 cells (DSMZ ACC107) were cultured in RPMI culture medium supplemented with 10% heat-inactivated FBS. The glioblastoma multiforme Hs683 (ATCC HTB-138) and the T98G (ATCC CRL-1690) cell lines were cultivated in DMEM supplemented with 10% FBS. The Human uterine sarcoma MES-SA and MES-SA/Dx5 cells were cultured in RPMI-1640 medium supplemented with 10% FBS with MES SA/Dx5 maintained in the presence of 500 nM Doxorubicin (Sigma). SKMEL-28 cells (ATCC HTB72) and U373 glioblastoma cells (ECACC 08061901) were cultured in RPMI culture medium supplemented with 10% heat-inactivated FBS. Cell culture media were supplemented with 4 mM glutamine (Lonza code BE17-605E), 100 μg/mL gentamicin (Lonza code 17-5182), and penicillin-streptomycin (200 units/ml and 200 μg/ml) (Lonza code 17-602E). Neurosphere culture GBM 031810 was established using known methods and maintained in Neurobasal medium (Invitrogen Carlsbad, Calif.) with B27 supplement (20 ul/ml; Invitrogen), Glutamax (10 ul/ml; Invitrogen), fibroblast growth factor-2 (20 ng/ml; Peprotech, Rocky Hill, N.J., USA), epidermal growth factor (20 ng/ml; Peprotech), heparin (32 IE/ml; Sigma Aldrich, St. Louis, Mo.), and penicillin-streptomycin (1×, Invitrogen). Growth factors and heparin were renewed twice weekly. All cell lines were cultured in T25 flasks, maintained and grown at 37° C., 95% humidity, 5% CO2.
as §2

[2] = system: Hs683 anaplastic oligodendroglioma cells; assay: MTT antiproliferative assay, Hs683; type: cell-based; conditions: Homo sapiens, Hs 683, 48 h treatment, ± SD, apoptosis-sensitive reference, read-out: GI50 in vitro, Hs683
Description: as §3, §4, §2

[3] = system: HeLa cervical adenocarcinoma cells; assay: MTT antiproliferative assay, HeLa; type: cell-based; conditions: Homo sapiens, Table 2, 48 h treatment, ± SD, read-out: cell viability GI50, HeLa
Excerpt: as §1, §4, §2

[4] = system: MCF-7 breast adenocarcinoma cells; assay: MTT antiproliferative assay, MCF-7; type: cell-based; conditions: Homo sapiens, MCF7, Table 2, 48 h treatment, ± SD, read-out: cell viability GI50, MCF7
Excerpt: as §1, §4, §2

[5] = system: GBM 031810 neurosphere cells; assay: Antiproliferative effect on patient-derived GBM neurosphere culture; type: cell-based; conditions: Homo sapiens, average IC50 ± SD from three determinations, read-out: GI50 in vitro, GBM 031810 (average IC50)
Excerpt: Given the ability of the hydroxamates to overcome drug resistance a few select compounds were further evaluated against glioma cells grown in neurosphere conditions, which are known to promote the growth of stem-like cells from human glioma tissue. Indeed, the neurospheres show the ability of self-renewal by regrowing in culture from individual cells, and can differentiate into multiple neural lineages and recapitulate human gliomas on both histological and genetic levels more faithfully than serum cultured glioma cell lines when injected into the brains of mice. Because, neurosphere cells are generally resistant to radiation and chemotherapy, the micromolar to submicromolar activity of the hydroxamates against the glioma neurosphere cell cultures is noteworthy (Table 4). […] It is worthy of note, that the unmethylated MGMT promoter leading to such temozolomide resistance is found in about half of all GBM patients, who respond poorly to temozolomide chemotherapy. To date, no alternative treatment exists for this group of patients.
as §4, with “Growth factors and heparin were renewed twice weekly. All cell lines were cultured in T25 flasks, maintained and grown at 37° C., 95% humidity, 5% CO2.” left out

[6] = system: MES-SA/Dx5 MDR uterine sarcoma cells; assay: MTT antiproliferative assay, MDR MES-SA/Dx5; type: cell-based, human; conditions: Homo sapiens, MES-SA/Dx5; 48 h treatment, MTT, ± SD; MDR line; read-out: GI50 in vitro, MES-SA/Dx5
Description: (§5) Compared with the intrinsic drug resistance, as described above for such cancers as glioblastoma and melanoma, a large variety of tumors can also develop resistance to anticancer drugs resulting in MDR as explained previously. To assess whether the hydroxamates can overcome this resistance mechanism, selected hydroxamates were tested against MDR cells (Table 4). The MDR uterine sarcoma cell line MES-SA/Dx5 was utilized for this experiment. This cell line was established from the parent uterine sarcoma MES-SA, grown in the presence of increasing concentrations of doxorubicin and known to be resistant to a number of P-gp substrates.
as §4, §2
Selection of the MES-SA/Dx5 cell line was done according to W. G. Harker and B. I. Sikic, Cancer Res. 1985, p. 45, 4091. The cells were split and allowed to adhere overnight. […] The cells were maintained at this DOX concentration until their growth rate reached that of the untreated cells.

[7] = system: A549 non-small-cell-lung cancer cells; assay: MTT antiproliferative assay, A549; type: cell-based, human; conditions: for GI50: Homo sapiens, A549, 48 h treatment, MTT, ± SD, read-out: GI50 in vitro, A549
Description: as §3, §4, §2

[8] = system: MES-SA uterine sarcoma cells; assay: MTT antiproliferative assay, MES-SA; type: cell-based; conditions: Homo sapiens, 48 h treatment, ± SD, read-out: GI50 in vitro, MES-SA
Description: as §5, with “substrates. […] In contrast, there was only a small variation in the sensitivities of the two cell lines towards the hydroxamates indicating their potential to overcome clinical multi-drug resistance.” for “substrates.”
as §4, §2

T98G glioblastoma cells = assay: MTT antiproliferative assay, T98G; type: cell-based; conditions: Homo sapiens, 48 h treatment, ± SD, read-out: GI50 in vitro, T98G
Description: as §3, §4, §2

[9] = FIG. 3, increasing concentration

| SMILES | antiproliferative potency (GI50) [1] | GI50 (U87 glioblastoma cells) [µM] | GI50 [2] [µM] | GI50 [3] [µM] | GI50 [4] [µM] | IC50 [5] [µM] | GI50 [6] [µM] | GI50 [7] [µM] | GI50 [8] [µM] | GI50 (T98G glioblastoma cells) [µM] | activity against cell populations resistant to proapoptotic agents, U87 (U87 glioblastoma cells; [9]) | activity against cell populations resistant to proapoptotic agents, A549 [7, 9] |
| --- | --- | --- | --- | --- | --- | --- | --- | --- | --- | --- | --- | --- |
| CC(C)c1ccc(C(C(=O)NO)c2c(-c3ccc4ccccc4c3)[nH]c3ccccc23)cc1 (centres unmarked) [Compound 3aafe] | single-digit micromolar; also recorded: submicromolar | 5 ± 0.5 | 6.1 ± 1 | 0.68 ± 0.04 | 1.4 ± 0.1 | 3.4 ± 0.7 | 4.9 ± 1.9 | 3.3 ± 0.6 | 1.7 ± 0.4 | 8.8 ± 0.5 | – | – |
| O=C(NO)C(c1ccccc1)c1c(-c2ccc3ccccc3c2)n(Cc2ccccc2)c2ccccc12 (centres unmarked) [Compound 3eafa] | single-digit micromolar | 9.1 ± 0.3 | 11.2 ± 0.9 | 5.4 ± 0.3 | 5.5 ± 0.2 | – | 8.5 ± 0.9 | 5.8 ± 0.8 | 7.1 ± 0.1 | 10.6 ± 0.4 | – | – |
| CCCCn1c(-c2ccc3ccccc3c2)c(C(C(=O)NO)c2ccccc2)c2ccccc21 (centres unmarked) [Compound 3cafa] | single-digit micromolar | 6.7 ± 0.3 | 10.8 ± 0.5 | 5.6 ± 0.3 | 7.8 ± 0.6 | – | 2.7 ± 0.3 | 5.7 ± 0.5 | 5.9 ± 1.7 | 12.3 ± 0.8 | – | – |
| Cn1nnc2c(C(N)=O)ncn2c1=O [Temozolomide, reference compound] | – | – | – | – | – | > 1000 | – | – | – | – | – | – |
| Cc1ccc(C(C(=O)NO)c2c(-c3ccc4ccccc4c3)[nH]c3ccccc23)cc1C (centres unmarked) [Compound 3aafk] | single-digit micromolar | 6.7 ± 1.5 | 4.7 ± 1 | 2.7 ± 0.1 | 2.5 ± 0.1 | – | 2.2 ± 0.8 | 2.9 ± 0.6 | 1.8 ± 0.4 | 7.5 ± 0.8 | – | – |
| CN(C)c1ccc(C(C(=O)NO)c2c(-c3ccc4ccccc4c3)[nH]c3ccccc23)cc1 (centres unmarked) [Compound 3aafp] | single-digit micromolar; also recorded: submicromolar | 21.3 ± 1.6 | 5.1 ± 0.5 | 0.6 ± 0.02 | 1.1 | 5.6 ± 0.8 | 1.6 ± 0.6 | 1.5 ± 0.3 | 0.8 ± 0.1 | 1.9 ± 0.2 | potent growth inhibitory properties against most of the cells | potent growth inhibitory properties against most of the cells |
